Legend:
[1] = preclinical studies (ref. 36); cited from earlier work
[2] = Stability at ambient conditions (cGMP material); type: physicochemical
Excerpt: AR-12 was initially developed by Arno Therapeutics (Arno) in 2008 for an oncology indication. In support of this oncology program, Arno initiated an Investigational New Drug (IND) enabling toxicology program, which included standard Good Laboratory Practice (GLP) tests (e. g. genotoxicity), a battery of safety pharmacology studies, and 28-day general toxicity assessments performed in rats and dogs. Before Arno's involvement, the National Cancer Institute had generated preclinical ADME (i. e., absorption, distribution, metabolism, and excretion) and toxicology data in the mouse model as part of the Rapid Access to Intervention Development (RAID) program. AR-12 synthesis was optimized and scaled-up to approximately 50 kg (purity >99.5%; stability ≥24 months at ambient conditions) under Current Good Manufacturing Practices (cGMP) conditions in anticipation of continued clinical development in the oncology setting.

Ng = experiment: Antimicrobial disk diffusion assays; design: species or system Neisseria gonorrhoeae; details: no human cells
Excerpt: This effect was specific to infection of human cells in that AR-12 was not effective against the Ng by antimicrobial disk diffusion assays, which prohibit Ng growth on agar plates.

[3] = Phase I oncology study of AR-12; type: in vivo, human
Excerpt: AR-12 was originally investigated in a Phase I oncology study (27), an IND (IND #103799) was previously filed with the Food and Drug Administration (FDA), and an Investigational Medicinal Product Dossier (IMPD) was filed with the Medicines and Healthcare Products Regulatory Agency (MHRA Reference: 35725/0001/001-0001 [EudraCT Number: 2009-014285-25]) in the United Kingdom, which enabled the Phase I study entitled: “A Phase I Study of AR-12 (2-Amino-N-[4-[5-(2-phenanthrenyl)-3-(trifluoromethyl)-1H-pyrazol-1-yl]phenyl]-acetamide) in Adult Patients With Advanced or Recurrent Solid Tumors or Lymphoma, for Which No Standard Therapy Is Available”. […] Thirty-five patients were enrolled at nine dose levels. With the original formulation tested, the recommended oncology Phase II dose was 800 mg twice daily.
The half-life in humans is long and is estimated to be approximately 60 hours. […] This is a favorable property for the treatment of Ng, which is, with rare exception, a mucosal pathogen. AR-12 is slowly released from the tissue back into the bloodstream and slowly excreted, which explains its long half-life.

[4] = tested on: Ng strains 1291 and (MDR) WHO-M; experiment: Modified gentamicin survival assay, drug added to established Ng infection of PEX cells; type: cell-based, Neisseria gonorrhoeae
Protocol: Modified gentamicin survival assays were performed in which pex cells were challenged with our preferred laboratory Ng strain, 1291, or the MDR Ng strain, WHO-M (beta-lactam-, ciprofloxacin-, and rifampicin-resistant; plus a mtrR mutation that could effect resistance to other compounds (35)). Infections were allowed to proceed for 90 min to allow Ng to adhere to and invade PEX cells. Vehicle control, AR-12, ceftriaxone, or gentamicin was then added to established infections.
At the indicated times post-challenge, the infection medium was removed, the PEX cell monolayers were rinsed and lysed, and viable Ng were enumerated by counting CFUs after plating serial dilutions of the PEX cell lysates. The percentage of Ng that survived the test treatment was determined as a function of the infection inoculum. In this aspect, the units are colony forming units—percent survival calculated as: [(#CFU (x dilution factor)) divided by (number of bacteria used as the infection inoculum (˜typically 1×10^7 bacteria per ml))×100]. A significant reduction (at least about 300 fold) in viable Ng was observed following a 3-hour incubation with 10 μM AR-12 (FIG. 2A).
Concentrations of AR-12 tested are shown on the x-axis. “None” refers to vehicle control.

[5] = tested on: Ng invasion of and survival within PEX cells; experiment: Gentamicin-survival assays: Ng invasion of and survival within PEX cells with estradiol, progesterone, Akt inhibitor; type: cell-based, Neisseria gonorrhoeae
Protocol: Progesterone (Pg) augments gonococcal invasion of and survival within PEX cells. […] Therefore, to more closely mimic the luteal phase of the menses cycle, when Pg concentrations fluctuate between 3 nM and 30 nM, the effect of Pg on Ng invasion of and survival within PEX cells was evaluated using a gentamicin-survival assays with 0.4 nM of estradiol (E2) and variable concentrations of Pg (FIG. 1)
Further studies were conducted to determine if Pg augmented the ability of gonococci to survive intracellularly within PEX cells. Following gentamicin treatment (to kill extracellular bacteria), infected cell monolayers were either lysed (releasing the invasive Ng) and serial dilutions were plated, or they were re-incubated in antibiotic free medium for 1 or 3 hours longer before plating the PEX cell lysate and quantitating colony forming units. Akt inhibitor VII was included or omitted from these experiments.

[6] = by 24 hours post-AR-12 treatment

Row | SMILES | accumulation in tissues relative to blood level concentrations [1] | blood brain barrier penetration [1] | stability [2] [months] | effectiveness against Ng on agar plates (Ng) | dose limiting toxicities (DLT) ([3]; doses appropriate in the oncology setting, human) | half-life ([3]; human, blood, oral dosage form, Phase I study, estimated, read-out: half-life in humans (converted)) [h] | safety profile ([3]; long-term oral exposures up to 33 weeks, phase I study) | recommended oncology Phase II dose ([3]; original formulation, human) [mg twice daily] | reduction in viable Ng ([4]; 10 μM AR-12, 3-hour incubation, Ng-infected PEX cells (FIG. 2A)) | viable Ng recovered ([4]; 10 μM AR-12, 24 h (FIG. 2C)) | reduction of the amount of viable Ng (CFU) compared to an untreated infection ([4]; 10 μM AR-12, after about 6 hours (FIG. 2E)) | reduction of the amount of viable Ng (CFU) compared to an untreated infection ([4]; 10 μM AR-12, after about 24 hours (FIG. 2E)) | reduction in the number of viable Ng ([4]; AR-12 treatment 6 h, Ng-infected PEX cells (FIG. 2B)) | killing of Ng (bactericidal effect) [4, 6] [%] | spontaneous resistance to AR-12 [4, 6] | gonococcal invasion of PEX cells ([5]; 0.4 nM estradiol, variable concentrations of Pg (FIG. 1A)) | ability of gonococci to invade, as well as survive within, PEX cells ([5]; presence of Pg, 1 or 3 hours post-invasion (FIG. 1B))
1 | NCC(=O)Nc1ccc(-n2nc(C(F)(F)F)cc2-c2ccc3c(ccc4ccccc43)c2)cc1 [AR-12, 2-amino-N-(4-(5-(phenanthren-2-yl)-3-(trifluoromethyl)-1H-pyrazol-1-yl)phenyl)acetamide] | exceeding the blood level concentrations several fold | rapid blood brain barrier penetration | ≥ 24 | not effective | fatigue, dizziness, and skin rash | ~60 | acceptable safety profile | 800 | at least 300 fold | no viable Ng were recovered | at least 3 log | at least 7 log | at least 600 fold | 100 | no spontaneous resistance | – | –
2 | CC(=O)[C@H]1CC[C@H]2[C@@H]3CCC4=CC(=O)CC[C@]4(C)[C@H]3CC[C@]12C [Pg, Progesterone] | – | – | – | – | – | – | – | – | – | – | – | – | – | – | – | increased with increasing concentrations of Pg | enhanced

Source: patent US10201526B2, “Compositions and methods for inhibiting the growth of neisseria gonorrhoeae” (Research Institute at Nationwide Children's Hospital, priority 2015, dated 2019)
